Test results: paper PMC5963640 (Journal of Ocular Pharmacology and Therapeutics, 2018)

What was measured:
live monkeys = tested on: live monkeys; parameters: method as in PMID 25535688; settings: 6 h after topical dosing, 0.04%; cited from earlier work
[1] = In vitro corneal metabolism, pig; format: in vitro ADME; settings: corneal tissue punches, 37°C, pH 6.5, read-out: t1/2 of corneal metabolism
Protocol: (§1) Enucleated pig eyes (n = 3) were harvested at a local abattoir, stored on ice, and used within 4 h of slaughter. For eyes harvested from beagle dogs (n = 3; Calvert Laboratories, Pittston, PA), Dutch Belted rabbits (n = 3; Robinson Services, Mockesville, NC), and cynomolgus monkeys (n = 4; Covance, Madison, WI), intact globes were stored in K-Sol corneal preservation buffer[31] under cold conditions and used within 24 h of sacrifice. Human corneas (n = 3) were acquired from The Eye Bank for Sight Restoration (New York, NY). The weights of the corneal punches were approximately the same for the dog, pig, human, and rabbit, whereas monkey corneal punches were approximately half of the weight of the others. Corneal punches were stored in phosphate-buffered saline and used within 1 h of preparation.
(§2) Samples were incubated at 37°C and reactions were subsequently terminated at appropriate time intervals by transferring a 100 μL aliquot of solution to an equal volume of cold acetonitrile followed by thorough trituration. The samples were centrifuged at 10,000 g for 10 min and the supernatants analyzed by high performance liquid chromatography (HPLC) using a Waters Alliance 2695 HPLC (Milford, MA) equipped with a Symmetry C18 4.6 × 75 mm 3.5 μm column.

[2] = tested on: normotensive Formosan Rock monkeys; assay: Ocular hypotensive activity (IOP) in monkeys; settings: for maximal IOP reduction: once daily, Day 3, at 4 or 8 h after dosing; for IOP reduction: Day 3
[3] = tested on: primary porcine TM (PTM) cells; assay: Disruption of actin stress fibers, high-content screening; format: cell-based; settings: Sus scrofa, 6 h, read-out: PTM IC50 (disruption of actin stress fibers)
[4] = tested on: normotensive Dutch Belted rabbits; assay: Ocular hypotensive activity (IOP) in rabbits; settings: for maximal IOP reduction: once daily, Day 3, at 4 or 8 h after dosing
[5] = target: T1, protein kinase C-theta (PKC-theta) (Homo sapiens, UniProt Q04759); assay: Kinase-Glo luminescent protein kinase assay, PKC-theta; format: biochemical; settings: average of ≥3 replicate experiments; read-out: PKCT Ki
T1 construct: purchased Invitrogen/Life Technologies

[6] = target: T2, calcium/calmodulin-dependent protein kinase II Alpha (CAMK2A) (Homo sapiens, UniProt Q9UQM7); assay: Kinase-Glo luminescent protein kinase assay, CAMK2A; format: biochemical; settings: average of ≥3 replicate experiments; read-out: CAM2A Ki
T2 construct: purchased Invitrogen/Life Technologies

[7] = tested on: transformed human TM (HTM) cells (TM-1); assay: Disruption of focal adhesions, high-content screening; format: cell-based; settings: 6 h, read-out: HTM IC50 (disruption of focal adhesions)
Formosan Rock monkeys = assay: Ocular tolerability (modified Draize, hyperemia score) in monkeys; settings: 0.01%, 0.02% and 0.04% solutions, once daily for 3 days
[8] = In vitro corneal metabolism, dog; format: in vitro ADME, beagle dogs; settings: beagle, corneal tissue punches, 37°C, pH 6.5, read-out: t1/2 of corneal metabolism
Protocol: as §1, §2

patients = tested on: patients; parameters: method as in PMID 25270273; settings: 0.02% once daily in the evening, Day 7 and 28 morning visits; cited from earlier work
primary HTM cells = assay: TGF-β2-induced expression of fibrogenic markers, immunofluorescence; format: cell-based, human; settings: 500 nM netarsudil plus 8 ng/mL TGF-β2, 24 h
Protocol: Cells were grown on gelatin (2%)-coated coverslips until they were semi-confluent. […] The cells were then assessed for induction of the fibrogenic markers α-smooth muscle actin (α-SMA), Collagen I, and fibroblast-specific protein 1 (FSP1) using immunofluorescence staining as previously described.[29] Mouse monoclonal antibody against α-SMA was purchased from Sigma-Aldrich, rabbit anti-FSP1 antibody from EMD Millipore (Billerica, MA), and rabbit anti-Collagen I antibody from Abcam (Cambridge, MA).

[9] = In vitro corneal metabolism, monkey; format: in vitro ADME, cynomolgus monkeys; settings: corneal tissue punches, 37°C, pH 6.5, read-out: t1/2 of corneal metabolism
Protocol: as §1, §2

[10] = Ocular metabolism: levels in aqueous humor after topical ocular dosing; format: in vivo, New Zealand rabbits
Protocol: In groups 1 and 2, the test article was dosed only once, and 100 μL samples of AH were taken from each eye by paracentesis at 4 or 6 h postdose, respectively. In groups 3 and 4, the test article was dosed once daily for 3 or 4 days, respectively, and 100 μL samples of AH were taken 4 h after dosing.

[11] = In vitro corneal metabolism, human; format: in vitro ADME; settings: corneal tissue punches, 37°C, pH 6.5, read-out: t1/2 of corneal metabolism
Protocol: as §1, §2

[12] = Absorption and distribution of radioactivity after single topical ocular dose; format: in vivo, Dutch Belted rabbits; settings: male, Dutch Belted, rabbit, in vivo
Protocol: A single topical ocular dose of 0.02% ^14C-netarsudil mesylate (35 μL drop) was administered to both eyes of 3 male Dutch Belted rabbits in each of 7 groups. At 0.25, 0.5, 1, 4, 8, 24, and 48 h postdose, the following samples were harvested from each group: whole blood, derived plasma, AH, vitreous humor, cornea, conjunctiva, lens, iris/ciliary body, retina-choroid-plexus, liver, and kidneys. All samples were assayed for total radioactivity. A study of the same design was conducted for AR-12286, using a single topical ocular dose of 0.5% ^3H-AR-12286 (35 μL drop).

[13] = target: norepinephrine transporter (NET) (Homo sapiens, UniProt P23975); assay: NET inhibitory activity (data not shown)
Dutch Belted rabbits = assay: Ocular tolerability (modified Draize, hyperemia score) in rabbits; settings: 0.005%, 0.01%, 0.02% and 0.04% solutions
[14] = In vitro corneal metabolism, rabbit; format: in vitro ADME, Dutch Belted rabbits; settings: Dutch Belted, corneal tissue punches, 37°C, pH 6.5, read-out: t1/2 of corneal metabolism
Protocol: as §1, §2

T2 sequence (Q9UQM7 whole entry): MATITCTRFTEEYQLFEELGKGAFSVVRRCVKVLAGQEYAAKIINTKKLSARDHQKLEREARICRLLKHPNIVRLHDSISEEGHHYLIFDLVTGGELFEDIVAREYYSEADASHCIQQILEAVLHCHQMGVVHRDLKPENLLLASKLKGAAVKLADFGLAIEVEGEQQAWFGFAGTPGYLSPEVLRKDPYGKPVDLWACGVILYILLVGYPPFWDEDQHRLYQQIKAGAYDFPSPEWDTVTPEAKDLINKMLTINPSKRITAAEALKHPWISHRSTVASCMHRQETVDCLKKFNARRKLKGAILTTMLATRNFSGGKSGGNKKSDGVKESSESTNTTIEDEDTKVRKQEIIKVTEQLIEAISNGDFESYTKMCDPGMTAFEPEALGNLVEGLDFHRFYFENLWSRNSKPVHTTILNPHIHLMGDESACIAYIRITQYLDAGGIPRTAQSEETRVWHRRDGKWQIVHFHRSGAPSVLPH
Sequence of norepinephrine transporter (NET) (P23975 whole entry, species assumed): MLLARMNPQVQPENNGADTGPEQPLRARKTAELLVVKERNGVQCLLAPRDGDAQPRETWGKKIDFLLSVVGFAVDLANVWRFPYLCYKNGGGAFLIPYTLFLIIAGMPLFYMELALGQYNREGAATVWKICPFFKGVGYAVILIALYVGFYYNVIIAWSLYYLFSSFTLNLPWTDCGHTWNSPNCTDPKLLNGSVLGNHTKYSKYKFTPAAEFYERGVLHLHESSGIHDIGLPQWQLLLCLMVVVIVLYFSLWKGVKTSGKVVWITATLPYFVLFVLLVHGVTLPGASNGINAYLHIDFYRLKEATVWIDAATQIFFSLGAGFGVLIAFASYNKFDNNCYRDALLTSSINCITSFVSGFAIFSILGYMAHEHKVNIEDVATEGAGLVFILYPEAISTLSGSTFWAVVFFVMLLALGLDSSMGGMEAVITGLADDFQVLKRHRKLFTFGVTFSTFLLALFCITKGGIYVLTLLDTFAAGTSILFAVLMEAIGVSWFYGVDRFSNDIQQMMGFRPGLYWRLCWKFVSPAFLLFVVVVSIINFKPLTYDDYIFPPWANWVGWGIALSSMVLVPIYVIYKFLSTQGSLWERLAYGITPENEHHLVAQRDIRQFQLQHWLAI
T1 sequence (Q04759 whole entry): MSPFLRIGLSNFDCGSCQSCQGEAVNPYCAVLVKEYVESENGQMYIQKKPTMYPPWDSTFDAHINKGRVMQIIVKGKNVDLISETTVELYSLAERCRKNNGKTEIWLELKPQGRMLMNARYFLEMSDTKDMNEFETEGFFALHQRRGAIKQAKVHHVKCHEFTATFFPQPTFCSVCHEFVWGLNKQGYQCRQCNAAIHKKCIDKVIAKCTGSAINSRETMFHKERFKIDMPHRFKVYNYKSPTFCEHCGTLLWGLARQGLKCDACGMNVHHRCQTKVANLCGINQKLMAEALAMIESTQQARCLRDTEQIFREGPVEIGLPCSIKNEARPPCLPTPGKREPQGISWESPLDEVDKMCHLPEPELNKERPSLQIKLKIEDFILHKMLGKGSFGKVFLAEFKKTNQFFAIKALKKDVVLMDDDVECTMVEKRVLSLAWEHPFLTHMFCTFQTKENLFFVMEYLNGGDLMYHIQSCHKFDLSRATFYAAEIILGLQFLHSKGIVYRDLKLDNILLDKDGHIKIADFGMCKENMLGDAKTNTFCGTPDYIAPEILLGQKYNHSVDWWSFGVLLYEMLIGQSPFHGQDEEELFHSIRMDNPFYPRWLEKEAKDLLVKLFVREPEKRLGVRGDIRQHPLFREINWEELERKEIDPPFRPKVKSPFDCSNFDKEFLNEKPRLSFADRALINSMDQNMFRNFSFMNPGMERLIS

Cc1ccc(C(=O)OCc2ccc([C@@H](CN)C(=O)Nc3ccc4cnccc4c3)cc2)c(C)c1 [Netarsudil]
increase in tonographic outflow facility (live monkeys): 53% | half-life at 200 µM [1]: 156 min | maximal IOP reduction ([2]; 0.01% solution): 4.2 ± 0.2 mmHg | maximal IOP reduction ([2]; 0.02% solution): 5.8 ± 0.3 mmHg | time for which full IOP-lowering effect was maintained after dosing ([2]; 0.04%): 24 h | maximal IOP reduction ([2]; 0.04% solution): 7.5 ± 1.1 mmHg | IOP reduction ([2]; 0.04%, 4 h after dosing): 7.5 ± 0.7 mmHg | IOP reduction ([2]; 0.04%, 24 h after dosing): 7.5 ± 1.1 mmHg | time IOP reductions were sustained after once daily dosing ([2]; monkeys): at least 24 h | IC50 [3]: 79 nM | maximal IOP reduction ([4]; 0.005% solution): 2.5 ± 0.2 mmHg | maximal IOP reduction ([4]; 0.01% solution): 4.6 ± 0.2 mmHg | maximal IOP reduction ([4]; 0.02% solution): 5.0 ± 0.6 mmHg | maximal IOP reduction ([4]; 0.04% solution): 8.1 ± 0.7 mmHg | IOP reduction ([4]; 0.04%, 8 h after dosing on Day 3): 8.1 ± 0.7 mmHg | time of peak IOP-lowering efficacy after dosing ([4]; Day 1): 8 h | time IOP reductions were sustained after once daily dosing ([4]; rabbits): at least 24 h | Ki [5]: 92 nM | Ki [6]: 5.31 µM | IC50 [7]: 16 nM | adverse effect noted (hyperemia) (Formosan Rock monkeys): trace to mild hyperemia was the only adverse effect noted | half-life at 200 µM [8]: 98 min | patients scored as having no hyperemia or trace hyperemia (patients): 65% to 76 | induction of fibrogenic markers α-SMA, FSP1 and Collagen I by TGF-β2 (primary HTM cells): abolished the induction of these markers by TGF-β2 | half-life at 200 µM [9]: 109 min | concentration in AH ([10]; after topical netarsudil 0.02%, below the limit of detection in all but 1 of the 24 samples): < 0.1 ng/mL | concentration at 4 h ([10]; male, New Zealand, rabbit, aqueous humor, topical, 0.02 %, read-out: concentration in AH, single sample above limit of detection): 1.82 ng/mL | half-life at 200 µM [11]: 175 min | AH half-life of related radioactivity, longer than that for AR-12286 [12]: ~60% | Tmax in AH ([12]; topical or ocular): 8 h | terminal elimination half-life (T1/2,e) in AH ([12]; topical or ocular): 16 to 17 h | NET inhibitory activity [13]: possesses NET inhibitory activity | persistence of hyperemia after dosing (Dutch Belted rabbits): 4 to 8 h | hyperemia (scored 0 to 3, none to severe) (Dutch Belted rabbits; once daily for 3 days): trace (+0.5) to mild hyperemia (+1) | half-life at 200 µM [14]: 140 min
